A short description of one data set: in vivo. Conditions: mouse, po. The method, then: Arch. int. […] The toxicity was tested by the ora
administration of the tested compound to mice.

For a further data set, the system named is erythema. Description: Anti-erythema activity by the Wilhelmi method, oral. Format: in vivo. As to conditions: Cavia porcellus, Guinea pig. The text has this: The anti-erythema activity was observed by the Wilhelmi method
[Wilhelmi,g.,(1949), Schweiz.Med.Wehnschr.,79, 577]. The anti-edema

In turn, `CC(C(=O)O)c1ccc(Oc2ccc(Cl)cc2)nc1` (stereo not drawn) [2-(2-p-Chlorophenoxy-5-pyridyl)-propionic acid] gave an LD50 in the data set “in vivo” of 1150 mg/kg. The same molecule had an ED50 in the data set on erythema of 19 mg/kg.

In turn, `CC(=O)Oc1ccccc1C(=O)O` [Aspirin, reference compound] gave a median lethal dose (LD50) in “in vivo” of 2000 mg/kg. Further, the ED50 in the data set with erythema is 79 mg/kg.

In “in vivo”, `CC(C(=O)O)c1ccnc(Oc2ccccc2)c1` (stereo not drawn) [Calcium bis[2-(2-phenoxy-4-pyridyl)-propionate]] registered a 50% lethal dose (LD50) of 2250 mg/kg. The 50% effect level in the data set on erythema (ED50) was put at a dose of 47 mg/kg.

In “in vivo”, `CC(C(=O)O)c1ccc(Oc2ccccc2)nc1` (stereo not drawn) [Calcium bis[2-(2-phenoxy-5-pyridyl)-propionate]] returned an LD50 of 1640 mg/kg. In addition, in the data set with erythema, the 50% effect level (ED50) was put at a dose of 21 mg/kg.

With `CCCCC1C(=O)N(c2ccccc2)N(c2ccccc2)C1=O` [Phenylbutazone, reference compound], the ED50 in the data set with erythema was found to be 26 mg/kg.

Usually LD50 stands for the dose expected to kill half of the subjects tested. Read a high LD50 as lower toxicity. For orientation: ED50 means the dose at which the effect has come halfway, by size or by number of responders.

The values above are taken from patent US3994908A, “Substituted acetic acid derivatives and production thereof” (Shionogi & Co., Ltd., priority 1972, dated 1976).
